Results: patent US20180153995A1, “USE OF ANTIMICROBIAL POLYMERS FOR RE-SENSITIZATION OF MICROORGANISMS UPON EMERGENCE OF RESISTANCE TO ANTI-MICROBIAL AGENTS” (Technion Research & Development Foundation Limited, priority 2008, published 2018)
Converted amounts (≈) assume the structure as drawn. Where two headings read alike, the source gives them in different places. Square brackets hold non-standard residues; d marks the D form. Peptide text beside a SMILES is read from it. 12Ado = NCCCCCCCCCCCC(=O)O

Tests used:
MRSA 15903 [1] = experiment: Sub-MIC time-kill curves (CFU counts); format: cell-based, Staphylococcus aureus; settings: sub-MIC time-kill, single agent
Method: At the specified time points of incubation (37° C. under shaking), cultures were subjected to serial 10-fold dilutions (up to 10^6) by adding 50 μl of sample to 450 μl saline (0.85% NaCl). Cell counts were determined using the drop plate method (three 20-μl drops onto LB-agar plates). Plates were incubated at 37° C. and colonies were counted for the calculation after incubation for 24 hours.

ATCC 29213 = experiment: microbe, parasite or virus in culture; format: cell-based, Staphylococcus aureus; settings: ATCC 29213
Method: (§1) MICs were determined by microdilution susceptibility testing in 96-well plates (by Nunc) using inocula of 10^5 bacteria per ml. Cell populations were evaluated by optical density measurements at 620 nm and were calibrated against a set of standards. Hundred (100) μl of a bacterial suspension were added to 100 μl of culture medium (control) or to 100 μl of culture medium containing various polymer concentrations in 2-fold serial dilutions. Inhibition of proliferation was determined by optical density measurements at 620 nm after an incubation period of 24 hours at 37° C.
(§2) The fractionary inhibitory (FIC) concentration index for combinations of two antimicrobial agents was calculated as follows: FIC index=FICA+FICB=A/MICA+B/MICB where A and B are the MIC values of agent A and agent B in the combination, MICA and MICB are the MICs of agent A and agent B alone, and FICA and FICB are the FICs of agent A and agent B.
(§3) The FIC indexes were interpreted as follows: less than 0.5 indicates a clear re-sensitizing effect; from 0.5 to 4 indicates a marginal or null re-sensitizing effect; and over 4 indicates antagonism.

MRSA 15918 = experiment: microbe, parasite or virus in culture; format: cell-based, Staphylococcus aureus; settings: 15918
Method: as §1, §2, §3

MRSA 15903 [2] = experiment: microbe, parasite or virus in culture; format: cell-based, Staphylococcus aureus; settings: for optimal re-sensitization polymer concentration: with oxacillin; for MIC, ¼ + MIC OAK: with C12K(KNC10K)3NH2 (SEQ ID NO: 10) at ¼ of its MIC; for MIC, ½ + MIC OAK: with C12K(KNC10K)3NH2 (SEQ ID NO: 10) at ½ of its MIC; for MIC, ⅓ + MIC OAK: with C12K(KNC10K)3NH2 (SEQ ID NO: 10) at ⅓ of its MIC
Method: as §2, §3
Experimental data for FIG. 4 were obtained as follows.

ATCC 25923 = experiment: microbe, parasite or virus in culture; format: cell-based, Staphylococcus aureus; settings: ATCC 25923
Method: as §1

MRSA 15852 = format: cell-based, Staphylococcus aureus; settings: 15852
Method: as §2, §3

E. coli G11a1 = experiment: Antibiotic MIC with or without sub-MIC polymer (Tables 20, 21); format: cell-based, Escherichia coli
Method: as §1

E. coli D21 = experiment: as above; format: cell-based, Escherichia coli
E. coli AG100 = experiment: as above; format: cell-based, Escherichia coli
E. coli AG100/ks = experiment: as above; format: cell-based, Escherichia coli
S. aureus ATCC 29213 = experiment: microbe, parasite or virus in culture
Method: In parallel, MIC evolution was compared concomitantly for each new sub-culture, using bacteria harvested from control wells (wells cultured without antimicrobial agent from the previous sub-culture). The relative MIC was calculated for each experiment from the ratio of MIC obtained for subculture “n” to that obtained for first-time exposure.
The relative MIC was determined as the normalized ratio of the MIC obtained for a given subculture to the MIC of the control.
MICs were determined by microdilution susceptibility testing in 96-well plates using inocula of 10^5 bacteria per ml. Cell populations were evaluated by optical density measurements at 600 nm and were calibrated against a set of standards.
In parallel, MIC evolution was compared concomitantly for each new generation, using bacteria harvested from control wells (wells cultured without antimicrobial agent from the previous generation). The relative MIC was calculated for each experiment from the ratio of MIC obtained for subculture “n” to that obtained for first-time exposure. […] MICs were determined by microdilution susceptibility testing in 96-well plates. Cell populations were evaluated by optical density measurements at 600 nm and were calibrated against a set of standards.

[3] = Staphylococcus aureus, MRSA, 24 h, MRSA 15903, antibiotic alone (Table 22), read-out: MIC, Alone

In the case of NCCCCCCCCCCCC(=O)N[C@@H](CCCCN)C(=O)NCCCCCCCCCCCC(=O)N[C@@H](CCCCN)C(=O)N[C@@H](CCCCN)C(=O)NCCCCCCCCCCCC(=O)N[C@@H](CCCCN)C(N)=O [NC12(KNC12K)2NH2] (H-[12Ado]K[12Ado]KK[12Ado]K-NH2), the “bactericidal activity, agent alone” value (MRSA 15903 [1]) is reported as “no bactericidal activity”, the MIC (ATCC 29213) is reported as 3.1 µM and the MIC (MRSA 15918) is reported as 6.2 µM. For the same molecule, the MIC (MRSA 15903 [2]; 15903) was 6.2 µM, the “improvement (decrease) in the polymer's MIC in presence of oxacillin” value (MRSA 15903 [2]; MRSA 15903, polymer + sub-MIC oxacillin) was “twofold” and the MIC of polymer (MRSA 15903 [2]; MRSA 15903, polymer alone) was 6.25 µM. The “optimal re-sensitization polymer concentration” value (MRSA 15903 [2]; MRSA 15903) was 2.1 µM, the MIC (ATCC 25923) was 3.1 µM (≈ 3.48 µg/mL) and the MIC (MRSA 15852) was 3.1 µM.
CO/N=C(\C(=O)N[C@@H]1C(=O)N2C(C(=O)O)=C(COC(C)=O)CS[C@H]12)c1csc(N)n1 [cefotaxime] was tested, and the “MIC, ¼ + MIC OAK” value (MRSA 15903 [2]; MRSA 15903) was 32 µg/mL, the “MIC, ½ + MIC OAK” value (MRSA 15903 [2]; MRSA 15903) was 4 µg/mL and the “MIC, ⅓ + MIC OAK” value (MRSA 15903 [2]; MRSA 15903) was 16 µg/mL. It also gave an MIC (MRSA 15903 [2]; [3]) of 32 µg/mL.
With CC1(C)S[C@@H]2[C@H](NC(=O)[C@H](N)c3ccccc3)C(=O)N2[C@H]1C(=O)O [ampicillin] the “Antibiotic MIC, None” value (E. coli G11a1; antibiotic alone (Table 20)) was 64 µg/mL, the “Antibiotic MIC, None” value (E. coli G11a1; antibiotic alone (Table 21)) was 64 µg/mL and the “Antibiotic MIC in presence of C12K(NC8K)5NH2 (SEQ ID NO: 3), +¼ MIC” value (“Antibiotic MIC … (SEQ ID NO: 3), +¼ MIC” for short) (E. coli G11a1; polymer at ¼ of its MIC) was 64 µg/mL. The “Antibiotic MIC in presence of C12K(NC8K)7NH2 (SEQ ID NO: 4), +¼ MIC” value (“Antibiotic MIC … (SEQ ID NO: 4), +¼ MIC” below) (E. coli G11a1; polymer at ¼ of its MIC) was 64 µg/mL, the “Antibiotic MIC in presence of C12K(NC8K)5NH2 (SEQ ID NO: 3), +½ MIC” value (shortened to “Antibiotic MIC … (SEQ ID NO: 3), +½ MIC”) (E. coli G11a1; polymer at ½ of its MIC) was 32 µg/mL and the “Antibiotic MIC in presence of C12K(NC8K)7NH2 (SEQ ID NO: 4), +½ MIC” value (“Antibiotic MIC … (SEQ ID NO: 4), +½ MIC” for short) (E. coli G11a1; polymer at ½ of its MIC) was 32 µg/mL. For the same molecule, the “Antibiotic MIC in presence of C12K(NC8K)5NH2 (SEQ ID NO: 3), +⅓ MIC” value (“Antibiotic MIC … (SEQ ID NO: 3), +⅓ MIC” below) (E. coli G11a1; polymer at ⅓ of its MIC) was 64 µg/mL, the “Antibiotic MIC in presence of C12K(NC8K)7NH2 (SEQ ID NO: 4), +⅓ MIC” value (shortened to “Antibiotic MIC … (SEQ ID NO: 4), +⅓ MIC”) (E. coli G11a1; polymer at ⅓ of its MIC) was 64 µg/mL and the “Antibiotic MIC, None” value (E. coli D21; antibiotic alone (Table 20)) was 64 µg/mL. For the same molecule, the “Antibiotic MIC, None” value (E. coli D21; antibiotic alone (Table 21)) was 64 µg/mL, the “Antibiotic MIC … (SEQ ID NO: 3), +¼ MIC” value (E. coli D21; polymer at ¼ of its MIC) was 64 µg/mL and the “Antibiotic MIC … (SEQ ID NO: 4), +¼ MIC” value (E. coli D21; polymer at ¼ of its MIC) was 64 µg/mL. The “Antibiotic MIC … (SEQ ID NO: 3), +½ MIC” value (E. coli D21; polymer at ½ of its MIC) was 32 µg/mL, the “Antibiotic MIC … (SEQ ID NO: 4), +½ MIC” value (E. coli D21; polymer at ½ of its MIC) was 32 µg/mL and the “Antibiotic MIC … (SEQ ID NO: 3), +⅓ MIC” value (E. coli D21; polymer at ⅓ of its MIC) was 64 µg/mL. For the same molecule, the “Antibiotic MIC … (SEQ ID NO: 4), +⅓ MIC” value (E. coli D21; polymer at ⅓ of its MIC) was 64 µg/mL, the “Antibiotic MIC, None” value (E. coli AG100; antibiotic alone (Table 20)) was 4 µg/mL and the “Antibiotic MIC, None” value (E. coli AG100; antibiotic alone (Table 21)) was 4 µg/mL. For the same molecule, the “Antibiotic MIC, None” value (E. coli AG100/ks; antibiotic alone (Table 20)) was over 512 µg/mL, the “Antibiotic MIC, None” value (E. coli AG100/ks; antibiotic alone (Table 21)) was over 512 µg/mL and the “Antibiotic MIC … (SEQ ID NO: 3), +¼ MIC” value (E. coli AG100/ks; polymer at ¼ of its MIC) was over 512 µg/mL. The “Antibiotic MIC … (SEQ ID NO: 4), +¼ MIC” value (E. coli AG100/ks; polymer at ¼ of its MIC) was over 512 µg/mL, the “Antibiotic MIC … (SEQ ID NO: 3), +½ MIC” value (E. coli AG100/ks; polymer at ½ of its MIC) was over 512 µg/mL and the “Antibiotic MIC … (SEQ ID NO: 4), +½ MIC” value (E. coli AG100/ks; polymer at ½ of its MIC) was over 512 µg/mL. For the same molecule, the “Antibiotic MIC … (SEQ ID NO: 3), +⅓ MIC” value (E. coli AG100/ks; polymer at ⅓ of its MIC) was over 512 µg/mL and the “Antibiotic MIC … (SEQ ID NO: 4), +⅓ MIC” value (E. coli AG100/ks; polymer at ⅓ of its MIC) was over 512 µg/mL.
With CCCCCCC=CCCCC(=O)N[C@@H](CCCCN)C(=O)N[C@@H](CCCCN)C(=O)NCCCCCCCCCCCC(=O)N[C@@H](CCCCN)C(N)=O [C12(5-ene)KKNC12KNH2] the MIC (ATCC 29213) was 6.2 µM, the MIC (MRSA 15918) was 6.2 µM and the MIC (MRSA 15903 [2]; 15903) was 3.1 to 6.2 µM. The MIC of polymer (MRSA 15903 [2]; 15903) was 6.2 µM, the “fractionary inhibitory concentration (FIC) index” value (MRSA 15903 [2]; MRSA 15903, oxacillin + polymer at optimal concentration 2.1 μM) was 0.35 and the “optimal re-sensitization polymer concentration” value (MRSA 15903 [2]; MRSA 15903) was 2.1 µM. For the same molecule, the MIC (ATCC 25923) was 3.1 µM (≈ 2.42 µg/mL), the MIC (MRSA 15852) was 6.2 µM and the “mean polymer's MIC” value (S. aureus ATCC 29213; ATCC 29213) was 4.9 µg/mL. For the same molecule, the “effect on relative MIC of now-resistant strain” value (S. aureus ATCC 29213; now-resistant ATCC 29213, polymer alone or oxacillin + sub-MIC polymer) was “decreased the relative MIC”.
CCN1CCN(C(=O)N[C@@H](C(=O)N[C@@H]2C(=O)N3C(C(=O)O)=C(CSc4nnnn4C)CS[C@H]23)c2ccc(O)cc2)C(=O)C1=O [cefoperazone] was tested, and the “MIC, ¼ + MIC OAK” value (MRSA 15903 [2]; MRSA 15903) was 16 µg/mL, the “MIC, ½ + MIC OAK” value (MRSA 15903 [2]; MRSA 15903) was 4 µg/mL and the “MIC, ⅓ + MIC OAK” value (MRSA 15903 [2]; MRSA 15903) was 8 to 16 µg/mL. For the same molecule, the MIC (MRSA 15903 [2]; [3]) was 16 µg/mL.
